# Columns and labels:
# B7-1 [1] = assay: B7-1 expression by FACS in IFNα-treated splenocytes from unstimulated mice; type: cell-based, mouse; settings: C57BL/6 splenocytes, with IFNα, FIG. 6 bottom panel
# Text: (§1) We determined the levels of […] and B7-2 by FACS analysis from IFNα-treated splenocytes from unstimulated BALB/c and C57B6 mice in order to determine whether the effect of ribavirin on the functional role of B7-1 and […] was a) inducible in resting, unstimulated lymphocytes, b) required the action of a B7 inducer such as IFNα, or c) elicited the same affects on the two mouse strains upon replacing antigen stimulation with a B7 inducer. […] In contrast, in C57BL/6 splenocytes (bottom panel), IFNα-induced B7-1 expression was enhanced by ribavirin but B7-2 expression was unaffected.
# B7-2 [2] = assay: B7-2 mRNA (RT-PCR) in human PBMCs with B7-inducing cytokines; type: cell-based
# Text: (§2) The differential effect by ribavirin on B7-1 and B7-2 expression as observed in the two mouse strains was examined in human peripheral blood mononuclear cells (PBMCs). Here we used three cytokines, IFNα, IFNβ, and TNFα to induce B7-1 and B7-2 expression. […] Two distinct outcomes were observed.
# B7-2 [3] = assay: B7-2 expression by FACS in lymph node cells from DNFB-primed mice, in vitro anti-αβ TCR challenge; type: cell-based, mouse; settings: BALB/c lymph node cells, ribavirin 5 μM, FIG. 3 top panel
# Procedure: (§3) The effect of ribavirin on B7-1 expression and B7-2 expression, at the time of challenge, in lymph node cells isolated from Ag-primed BALBc and C57BL/6 mice was examined. Mice were primed epicutaneously with dinitrofluorobenzene (DNFB) 6 days prior to concomitant ribavirin treatment (5 μM) and in vitro challenge using an immobilized anti-αβ TCR antibody. Unexpectedly, we observed opposing effects of ribavirin on DNFB-induced B7-1 expression and B7-2 expression in these two mouse strains.
# B7-1 [4] = assay: B7-1 mRNA (RT-PCR) in human PBMCs with B7-inducing cytokines; type: cell-based
# Text: as §2
# TNFα = TNFα levels in human PBMCs with B7-inducing cytokines; type: cell-based
# Text: as §2
# B7-1 mRNA = B7-1 mRNA (RT-PCR/Southern) in lymph node cells of ribavirin-treated CHS mice; type: in vivo, mouse; settings: FIG. 5
# Procedure: (§4) To determine the effect of ribavirin on the functional role of B7-1 and B7-2 on contact hypersensitivity (CHS) responses, we measured B7-1 and B7-2 mRNA levels in RNA isolated from the lymph node cells of the animals used in the above CHS experiments. Following RT-PCR with specific primers, electrophoresis and Southern blotting, PCR products were analyzed by hybridization with 32P-labeled specific probes. […] In contrast, in C57BL/6 mice, B7-1 mRNA expression was enhanced by ribavirin, but B7-2 mRNA expression was unaffected.
# B7-2 [5] = assay: B7-2 expression by FACS in IFNα-treated splenocytes from unstimulated mice; type: cell-based, mouse; settings: with IFNα
# Text: as §1
# B7-1 [6] = assay: B7-1 expression by FACS in lymph node cells from DNFB-primed mice, in vitro anti-αβ TCR challenge; type: cell-based, mouse; settings: C57BL/6 lymph node cells, ribavirin 5 μM, FIG. 3 bottom panel
# Procedure: as §3
# IL-10 = IL-10 levels in human PBMCs with B7-inducing cytokines; type: cell-based
# Text: as §2
# B7-2 mRNA = B7-2 mRNA (RT-PCR/Southern) in lymph node cells of ribavirin-treated CHS mice; type: in vivo, mouse; settings: FIG. 5
# Procedure: as §4
# BALB/c and C57BL/6 mice = assay: Contact hypersensitivity (CHS) ear response to DNFB in mice; type: in vivo, mouse; settings: 0.5 mg/kg i.p. at challenge, 24 hours after challenge, FIG. 4
# Procedure: The functional effect of this differential effect on B7-1 and B7-2 mediated by RIB was examined in an in vivo murine model of contact hypersensitivity, and a B7-2 dependent immune response (Eur. J. Immunol, 1996. 26: 880-885). Briefly, animals were primed with 2,4-dinitro-1-fluorobenzene (DNFB) (0.3%) epicutaneously on the abdomen and challenged 6 days later on each ear with 0.12% DNFB. Ribavirin-treated animals were injected intraperitoneally at the time of challenge with an optimal dose of 0.5 mg/kg in 50 μl PBS. Ear measurements were taken before challenge and 24 hours after challenge. Response to DNFB was expressed as the difference between the two ear measurements. […] Ear responses in BALB/c mice were augmented following ribavirin (RIB) treatment but were impaired in ribavirin-treated C57BL/6 mice.
# [7] = 24 hour incubation with B7-inducing cytokines, FIG. 7 right hand panel (B)
# [8] = 24 hour incubation with IFNα, IFNβ or TNFα, FIG. 7 left panel (A)
# [9] = BALB/c mice of the CHS experiment
# [10] = C57BL/6 mice of the CHS experiment
structure (smiles),measurement,setting,value
"NC(=O)c1ncn([C@@H]2O[C@H](CO)[C@@H](O)[C@H]2O)n1 [ribavirin, 1-β-D-Ribofuranosyl-1,2,4-Triazole-3-Carboxamide]",IFNα-induced B7-1 expression,B7-1 [1],enhanced
same,B7-2 expression,B7-2 [2]; [7],increased B7-2 expression
same,B7-2 expression,B7-2 [2]; [8],decreased
same,B7-2 expression (mean channel fluorescence),B7-2 [3],enhanced B7-2 expression
same,B7-1 expression,B7-1 [4]; [7],decreased B7-1 expression
same,B7-1 mRNA expression,B7-1 [4]; [8],increased
same,TNFα levels,TNFα; [7],increased
same,TNFα,TNFα; [8],concomitant decrease
same,B7-1 mRNA expression in lymph node cells,B7-1 mRNA; [9],unaffected
same,B7-1 mRNA expression in lymph node cells,B7-1 mRNA; [10],enhanced
same,IFNα-induced B7-2 expression,"B7-2 [5]; BALB/c splenocytes, FIG. 6 top panel",augmented
same,IFNα-induced B7-2 expression,"B7-2 [5]; C57BL/6 splenocytes, FIG. 6 bottom panel",unaffected
same,B7-1 expression (mean channel fluorescence),B7-1 [6],enhanced B7-1 expression
same,IL-10 levels,IL-10; [7],dropped
same,IL-10,IL-10; [8],concomitant increase
same,B7-2 mRNA expression in lymph node cells,B7-2 mRNA; [9],augmented
same,B7-2 mRNA expression in lymph node cells,B7-2 mRNA; [10],unaffected
same,Inflammatory ear response to DNFB,BALB/c and C57BL/6 mice; BALB/c mice,augmented
same,Inflammatory ear response to DNFB,BALB/c and C57BL/6 mice; C57BL/6 mice,impaired

# From US20020187945A1, “Modulation of immune response by ribavirin” (priority 1999, published 2002)
